Consider one compound from patent US11970455B1, “7-(4-fluorobenzylidene)-4-(4-fluorophenyl)-2-methoxy-6,7-dihydro-5H-cyclopenta[b]pyridine-3-carbonitrile as an antimicrobial compound” (KING FAISAL UNIVERSITY, priority 2023, dated 2024).

Data set [1] deals with Staphylococcus aureus. Kind of data set: Antimicrobial testing by agar dilution, St. Aereus. The class given is cell-based. The note with it: after 10, 20, 40 and 60 min at all dilutions 1:100, 1:200, 1:400, 1:800. The procedure: (§1) The antimicrobial properties of the 7-(4-fluorobenzylidene)-4-(4-fluorophenyl)-2-methoxy-6,7-dihydro-5H-cyclopenta[b]pyridine-3-carbonitrile was studied by the method of agar dilution. Test solutions of each compound was prepared in concentration of 1% using dimethylformamide as a solvent then they are diluted in physiological solution to obtain the final experimental dilutions 1:100, 1:200, 1:400, 1:800. The effect of these substances are compared with furacillin in a controllable study. The testing microbes used were gram positive bacteria Staphylococcus aureus, gram negative bacteria Pseudomonas aeruginosa, Escherichia coli and Candida albicans fungi were taken. The experiments used for this survey were meat-pentonlu agar (EPA) for cultivation of bacteria and Saburo environment for fungi. Each experiment used 1 mL of test solution on each plate 500 min. Add 2 drops of emulsified with microbes feel. All experimental samples were taken from the agar after 10, 20, 40, 60 minutes in the environment on the basis of Patrk planted. Bacteria were cultivated at a temperature of 37° C. for 1 day and the mushroom was kept in a thermostat for […] at a temperature of 28° C. Then the results were checked.
(In general: In agar dilution, organisms are placed on agar that contains the substance at set levels.)

Data set [2] has as its system Escherichia coli. Description: Antimicrobial testing by agar dilution, E. Coli. The class given is cell-based. The note with it: after 10, 20, 40 and 60 min at all dilutions 1:100, 1:200, 1:400, 1:800. The procedure:
as §1

For data set [3], the system named is Pseudomonas aeruginosa. Kind of data set: Antimicrobial testing by agar dilution, Ps. aeruginosa. The note with it: after 10, 20, 40 and 60 min at all dilutions 1:100, 1:200, 1:400, 1:800. Format: cell-based. As to the method: as §1
The subject of data set [4] is Candida albicans. Description: Antimicrobial testing by agar dilution, Candida albicans. The note with it: after 10, 20, 40 and 60 min at all dilutions 1:100, 1:200, 1:400, 1:800. Format: cell-based. The procedure: as §1

The structures appear in SMILES notation.

A word on the melting point: it is the temperature, or range, at which the solid turns liquid. Compound `COc1nc2c(c(-c3ccc(F)cc3)c1C#N)CC/C2=C\c1ccc(F)cc1` [7-(4-fluorobenzylidene)-4-(4-fluorophenyl)-2-methoxy-6,7-dihydro-5H-cyclopenta[b]pyridine-3-carbonitrile] showed a melting point of 136 to 138 °C. Moreover, the inhibition activity result in data set [1] was “most higher inhibition activity”. Also, the inhibition activity result in data set [2] is listed as “most higher inhibition activity”. The inhibition activity result in data set [3] was “most higher inhibition activity”. Moreover, the inhibition activity entry in data set [4] is reported as “most higher inhibition activity”.
